# From a melting point compilation (Tetko et al.; mined from patent text by program, amines drawn as free bases though some values may be those of a salt)
row,Structure (SMILES),melting point [°C]
1,O=C(O)c1cccc(-c2ccc3[nH]cc(-c4ccc(Cl)cc4Cl)c3c2)c1,303 to 304
2,CC(=O)N1CCc2cc(C(=O)CCCN3CCC(c4noc5cc(F)ccc45)CC3)sc2C1,145 to 147
3,CC(C)CN(C(=O)N(CCCl)N=O)C1(O)C(OC2CCCCC2)OC(CO)C1O (centres undefined),70 to 72
4,COc1c(C)c(C)cc(C)c1C(O)(c1ccc(C)cc1)C(C)C (centres undefined),103 to 104
5,COc1cc(C=C[N+](=O)[O-])c2c(c1OC)CCC2,128 to 130
6,COc1ccc(C(=O)C2=C(O)C(=O)N(c3nnc(C)s3)C2c2cccc(C(=O)O)c2)cc1 (centres undefined),281
7,CCCC12CCC(=O)C=C1c1c(cc(OC)c(Cl)c1Cl)C2Br (centres undefined),132 to 134
8,Cc1ccc(S(=O)(=O)Oc2ccc3nc(S(N)(=O)=O)sc3c2)cc1,142
9,CCOc1nc2nc(SC)nn2c2c1cnc1c2cnn1CC,209 to 211
10,Cc1ccc(CC2CCN(C(=O)CNc3ccc4c(c3)OCC(=O)N4)CC2)cc1,206 to 208
11,O=c1oc(-c2ccc(F)cc2)nc2cccc(Cl)c12,159 to 162
12,O=c1c(Cc2cccnc2)cn2c3cc(F)ccc3c3cc(OCCCO)cc1c32,204 to 209
13,Cc1ccc(S(=O)(=O)N2CCN(C(=O)c3cc4cc(O)ccc4cc3O)CC2)cc1,135 to 137
14,O=C(/C=C/c1ccc2ccccc2c1)Nc1cc(Cl)ccc1OCc1nnn[nH]1,218 to 223
15,O=[N+]([O-])c1ccc(CCN2CCN(c3nsc4ccccc34)CC2)cc1,99
16,CCOCCCOc1ccc2c(c1)C(N(C)S(C)(=O)=O)CC(C)(C)O2 (centres undefined),61 to 63
17,COCc1cc2ccccc2oc1=O,72 to 73
18,COc1ccc2cc(C(N)=O)ccc2c1,224 to 226
19,CC(=O)Nc1c(-c2ccc(Cl)cc2)c2ccccc2n1C,196 to 197
20,Cc1nc(NC(=O)c2cccc(OC(F)(F)F)c2)sc1C(=O)NCc1ccccc1,230 to 232
21,CCCCCSCCSCCSCCCCC,< 50
22,COC(=O)C1OC(OC(=N)C(Cl)(Cl)Cl)C(OC(C)=O)C(OC(C)=O)C1OC(C)=O (centres undefined),108
23,CCOC(=O)c1ccc(Cn2cnc3cccnc32)cc1,104 to 106
24,O=C(CS(=O)(=O)C(c1ccc(Cl)cc1)c1ccc(Cl)cc1)c1cccs1,150 to 151
25,COCC(C)NC1=NS(=O)(=O)c2cc(Cl)cnc2N1 (centres undefined),150 to 156

row,Structure (SMILES),melting point [°C]
1,CCOC(=O)c1c(Oc2cccc(Cl)c2)c2cc(C(c3ccc(Cl)cc3)c3cnc(-c4ccccc4)[nH]3)ccc2[nH]c1=O (centres undefined),189
2,CCc1cccc2cc(C(C)=O)oc12,59 to 60
3,CC1COCc2nc3c(N)nc4cc(C=CC(=O)N(C)C)ccc4c3n21 (centres undefined),> 250
4,OC(c1ccc(Cl)cc1)C(Nn1cncn1)c1ccc(F)cc1F (centres undefined),61 to 76
5,CCCOC(=O)c1cccc2c1S[C@@H](c1ccc(OC)cc1)[C@@H](OC(C)=O)C(=O)N2CCN(C)C (racemic),107 to 109
6,O=C(O)COc1cccc(-c2c3ccccc3c(Br)c3sc4ccccc4c23)c1,180 to 181
7,COc1cc(OC)nc(Oc2c(Cl)cc(Cl)cc2C=O)n1,132 to 133
8,CC(C)Oc1c(C(=O)O)sc2c1CS(=O)CC2 (centres undefined),192 to 193
9,CCc1ccc(NC(=O)c2cc(C(C)(C)C)ccc2S)cc1,150 to 151
10,COC(=O)c1coc(-c2ncn3c2CN(C)C(=O)c2sccc2-3)n1,254 to 255
11,Cc1cc(NC(=O)NC(=O)c2ccccc2Cl)cc(C)c1Oc1ccc(Cl)c2c1CCCC2,224 to 226
12,O=C(Nc1ccc2cc(CN3CCCC3)cnc2c1)c1ccc(-c2ccc(Cl)cc2)nc1,223 to 225
13,Cc1cccc(-c2[nH]c(C(C)C)nc2-c2cccc(-n3ccnc3)c2)n1,158 to 161
14,CCOC(=O)C1(CC(N)=O)C(=O)N(Cc2ccc(Br)cc2F)C(=O)c2cccn21 (centres undefined),190 to 192
15,NC(=O)CNC(=O)CN1CC(O)CC1=O (centres undefined),158 to 160
16,N=C(NC=Cc1ccc([N+](=O)[O-])cc1)c1ccc([N+](=O)[O-])cc1,214 to 216
17,CCC(=O)Nc1ccc(-n2cc(CCCOc3c(CC(=O)O)cccc3OC)c(C(C)C)n2)nc1,147 to 148
18,Cc1c(-c2ccccc2)oc2c(CC(=O)O)cccc2c1=O,191 to 192
19,c1ccc(C(Sc2nnn[nH]2)c2ccccc2)cc1,132 to 134
20,CCn1nc(C#N)c(Br)c1CC(C)C,50 to 51
21,CCOC(=O)Cc1ccc(NCc2cc(Br)ccc2OCc2ccccc2)cc1,73
22,"CC(C#CC1CC(Oc2ccc(OC(F)(F)F)cc2)C1)N(O)C(N)=O (single isomer, unassigned; (+))",103 to 105
23,O=C(NCCNC(=O)C1CCN(c2c(Cl)cncc2Cl)CC1)c1ccccc1,209 to 211
24,CC(C)(CCCCCC(=O)CCCCCC1(C(=O)O)CC1)C(=O)O,65 to 66
25,CCCn1c(=O)c2[nH]c(C3CCC(=O)C3)nc2n(CCC)c1=O (centres undefined),147 to 148

row,Structure (SMILES),melting point [°C]
1,CSc1sc(C(=O)N2CCCCCC2)c2c1C(=O)CC(C)(C)C2,168 to 170
2,CN(Cc1cccc2c1CN(C1CCC(=O)NC1=O)C2=O)C(=O)Nc1ccc(Cl)cc1 (centres undefined),255 to 257
3,CCOc1c(C)c(N2CCN(c3ccc(F)cc3)CC2)c(C)c2c1OC(C)(C)C2,163 to 165
4,CCOC(=O)C(C)c1ccc(N[C@@H](CCC(N)=O)C(=O)O)cc1 (some centres undefined),157 to 158
5,CC(C)(N)COC(=O)CCc1cc(C(C)(C)C)c(O)c(C(C)(C)C)c1,97 to 99
6,CN(CCN(CCC12CC3CC(CC(C3)C1)C2)C(=O)NCCCc1ccncc1)C(=O)CC(C)(C)C,101 to 102
7,COc1cc2c(cc1OC)C(C)C(C)=NN=C2c1cccc(Cl)c1 (centres undefined),156 to 158
8,OCc1ccc(C23CNCC2C3)cc1 (centres undefined),80 to 82
9,CC(Oc1ccccc1Cl)c1nnc(N)s1 (centres undefined),160 to 164
10,Cn1c(=O)c2c(nc(C=Cc3cccc([N+](=O)[O-])c3)n2C)n(C)c1=O,306 to 308
11,O=C(O)CCC(CC=Cc1cccc(Cl)c1)(C(=O)C=Cc1ccc(Cl)cc1)c1ccccc1 (centres undefined),65 to 105
12,COC(=O)C1=C(C)NC(C(C)O)=C(C(=O)OC)C1c1ccccc1Cl (centres undefined),145 to 147
13,CCOC(=O)c1ncn2c(-c3cccnc3)ccnc12,184 to 186
14,CC(=O)c1ccc2c(c1)CCCN2C(=O)c1ccc(-c2ccc(Cl)cc2)cc1,149 to 151
15,Cc1c(OCCCCSCCn2c([N+](=O)[O-])cnc2C)ccnc1CNc1cnc2ccccc2c1,154 to 158
16,CCOC(=O)CN(Cc1cccnc1)c1ccc(C(O)(C(F)(F)F)C(F)(F)F)cc1,55
17,O=C(Nc1ccc(N2CCN(Cc3ccccc3)CC2)cc1)c1ccccc1-c1ccc(C(F)(F)F)cc1,180
18,CSCC[C@H](NC(=O)c1cc(NC(Cn2ccnc2)c2ccc(F)cc2)ccc1Cc1ccc(F)cc1)C(=O)O (some centres undefined),130 to 135
19,CC1(C=O)COC2(CCCCCCCCCCC2)OO1 (centres undefined),88 to 89
20,c1ccc2c(c1)Cc1sccc1CN2,86
21,CCOc1cc(F)cc2c1c(CCN(C)C)cn2CC,77.1 to 78.2
22,CC(C)n1c(=O)nc(-c2ccc3c(c2)OCO3)c2cc3c(cc21)OCO3,125 to 127
23,CN1CC(=O)Nc2cccc(Br)c2C1=O,232 to 233
24,O=C1NCc2c(-c3ccccc3)cccc2N1CCN1CCOCC1,228 to 229
25,CCN1CCN(c2ccc(CC3=C(C)C(=O)c4ccccc4C3=O)cc2)CC1,81 to 82

row,Structure (SMILES),melting point [°C]
1,Brc1ccccc1-c1c(Br)cccc1Br,95 to 97
2,CNC(=O)c1cc2nc(C)c(C)nc2c(Cl)c1NC(=O)c1cc(C(F)(F)F)nn1-c1ncccc1Cl,221 to 224
3,Cc1ccc(N2C(=O)C(O)=C(C(=O)c3ccc(C(C)C)cc3)C2c2ccc(OC(C)C)nc2)nn1 (centres undefined),282
4,Cc1csc2nc(CO)cn12,156 to 157
5,COc1cc(-n2cccn2)ccc1-n1cc(OC)c(=O)c(C(C)=O)n1,193 to 196
6,COC(=O)c1ccc(OCC2CC(=O)N(c3ccc(N)cc3)C2)cc1 (centres undefined),136 to 138
7,CC1=C(Cl)CC2C(=O)OC(=O)C2C1 (centres undefined),76 to 78
8,NC(=O)CNC(=O)C1(N2CCCC2=O)CC1,180
9,CN(C)c1ccc(C2(c3ccccc3)Oc3ccccc3-c3[nH]c4ccccc4c32)cc1 (centres undefined),229
10,Cc1ccc(-n2nc(OC(=O)c3ccccc3)c3c(c2=O)Cc2ccc(Cl)cc2N3)cc1,248 to 250
11,O=C1CC(C(F)(F)F)CC(=O)N1c1cc(O)c(Cl)cc1F,112 to 114
12,NC(=O)c1cccc(-c2nc3sccn3c2-c2ccnc(N[C@@H]3CCCNC3)n2)c1,202 to 205
13,Cc1ccc(NS(=O)(=O)c2cccc(C#N)c2)c2[nH]cc(C#N)c12,220 to 221
14,O=C(O)Cc1cn(Cc2ccc(OCc3ccccc3)cc2)nc1-c1ccc(F)cc1,194 to 195
15,CCOC(=O)c1[nH]c(=O)n(C)c(=O)c1OCc1ccccc1,184 to 187
16,CC(C)Oc1ccnc2c1c(I)cn2S(=O)(=O)c1ccccc1,151 to 153
17,Fc1cccc(CSc2nnc(-c3ccnc(Nc4ccccn4)c3)o2)c1,141 to 142
18,O=C1C(=Cc2ccc(Cl)cc2)N2CCC1CC2,108 to 110
19,COC(=O)c1ccc2ccc(NC(=O)OC(C)(C)C)c(Br)c2c1,137 to 140
20,OCc1nnc(-c2ccc(-c3ccccc3)cc2)n1-c1ccccc1F,220 to 223
21,Nc1nc(OCCc2ccc(Cl)cc2)nc2c1ncn2C1OC(CO)C(O)C1O (centres undefined),156 to 159
22,COc1ccc(C(F)(F)F)cc1C(=O)c1ccc(C#N)cc1,88
23,O=C(Nc1ccccc1Oc1ccc(Cl)cc1)C1CCN(C(=O)c2ccccc2)CC1,158 to 160
24,O=C(O)Cc1cccc2c(=O)cc(-c3ccc(F)c(F)c3)oc12,145 to 147
